The molecules below were run against LRRK2 (Homo sapiens, UniProt Q5S007) (assay: LRRK2 protein kinase assay ([γ-33P] ATP, peptide substrate), KI values of Table 1). Settings: LRRK2 affinity values.
Type: biochemical
Description: All LRRK2 protein kinases were of human origin and were sourced from Invitrogen Corporation (Carlsbad, Calif. 92008 USA) unless otherwise indicated. The active mutant used was recombinant human, catalytic domain (amino acids 970-2527) containing a G2019S mutation, GST-tagged, expressed in insect cells (Invitrogen Cat#PV4881). The wild type used was recombinant human, catalytic domain (amino acids 970-2527) GST-tagged, expressed in insect cells (Invitrogen Cat#PV4873). The kinase dead mutant used was recombinant human, catalytic domain (amino acids 970-2527) containing a D1994A mutation, GST-tagged, expressed in insect cells (Invitrogen Cat#PM4041AE). No special measures were taken to activate any of the kinases.
All assays were carried out at room temperature (˜21° C.) and were linear with respect to time and enzyme concentration under the conditions used. Assays were performed for 180 min in a 96 well format. LRRK2 was present at a concentration of approximately 5 nM. The enzyme was diluted and assayed in 50 mM Tris-HCl pH7.5, 0.1 mM EGTA, 1 mM DTT and 10 mM MgCl2. The concentration of magnesium chloride in the assay was 10 mM. The [γ-33P] ATP (0.4 μCi/well) was used at 134 uM for G2019S mutant and at 57 μM for the wild type kinase in order to be at Km. The peptide substrate in the assay was […] at 100 μM.
The assays were initiated with Mg/ATP and stopped by the addition of 25 μl/well 50% orthophosphoric acid. Reactions were harvested onto Whatman P81 Unifilter Plates (Fisher Scientific. Loughborough, LE115RG, UK. Cat# FDU-105-020U) using a Tomtec harvester. (Tomtec Hamden, Conn. 06514. USA) Plates were counted using a Perkin Elmer Top Count NX7. (Perkin Elmer, Shelton Conn. 06484-4794 USA)
IC50 values of inhibitors were determined after carrying out assays at 10 different concentrations of each compound in duplicate.

Chain of LRRK2 (Q5S007 whole entry G2019S, form open): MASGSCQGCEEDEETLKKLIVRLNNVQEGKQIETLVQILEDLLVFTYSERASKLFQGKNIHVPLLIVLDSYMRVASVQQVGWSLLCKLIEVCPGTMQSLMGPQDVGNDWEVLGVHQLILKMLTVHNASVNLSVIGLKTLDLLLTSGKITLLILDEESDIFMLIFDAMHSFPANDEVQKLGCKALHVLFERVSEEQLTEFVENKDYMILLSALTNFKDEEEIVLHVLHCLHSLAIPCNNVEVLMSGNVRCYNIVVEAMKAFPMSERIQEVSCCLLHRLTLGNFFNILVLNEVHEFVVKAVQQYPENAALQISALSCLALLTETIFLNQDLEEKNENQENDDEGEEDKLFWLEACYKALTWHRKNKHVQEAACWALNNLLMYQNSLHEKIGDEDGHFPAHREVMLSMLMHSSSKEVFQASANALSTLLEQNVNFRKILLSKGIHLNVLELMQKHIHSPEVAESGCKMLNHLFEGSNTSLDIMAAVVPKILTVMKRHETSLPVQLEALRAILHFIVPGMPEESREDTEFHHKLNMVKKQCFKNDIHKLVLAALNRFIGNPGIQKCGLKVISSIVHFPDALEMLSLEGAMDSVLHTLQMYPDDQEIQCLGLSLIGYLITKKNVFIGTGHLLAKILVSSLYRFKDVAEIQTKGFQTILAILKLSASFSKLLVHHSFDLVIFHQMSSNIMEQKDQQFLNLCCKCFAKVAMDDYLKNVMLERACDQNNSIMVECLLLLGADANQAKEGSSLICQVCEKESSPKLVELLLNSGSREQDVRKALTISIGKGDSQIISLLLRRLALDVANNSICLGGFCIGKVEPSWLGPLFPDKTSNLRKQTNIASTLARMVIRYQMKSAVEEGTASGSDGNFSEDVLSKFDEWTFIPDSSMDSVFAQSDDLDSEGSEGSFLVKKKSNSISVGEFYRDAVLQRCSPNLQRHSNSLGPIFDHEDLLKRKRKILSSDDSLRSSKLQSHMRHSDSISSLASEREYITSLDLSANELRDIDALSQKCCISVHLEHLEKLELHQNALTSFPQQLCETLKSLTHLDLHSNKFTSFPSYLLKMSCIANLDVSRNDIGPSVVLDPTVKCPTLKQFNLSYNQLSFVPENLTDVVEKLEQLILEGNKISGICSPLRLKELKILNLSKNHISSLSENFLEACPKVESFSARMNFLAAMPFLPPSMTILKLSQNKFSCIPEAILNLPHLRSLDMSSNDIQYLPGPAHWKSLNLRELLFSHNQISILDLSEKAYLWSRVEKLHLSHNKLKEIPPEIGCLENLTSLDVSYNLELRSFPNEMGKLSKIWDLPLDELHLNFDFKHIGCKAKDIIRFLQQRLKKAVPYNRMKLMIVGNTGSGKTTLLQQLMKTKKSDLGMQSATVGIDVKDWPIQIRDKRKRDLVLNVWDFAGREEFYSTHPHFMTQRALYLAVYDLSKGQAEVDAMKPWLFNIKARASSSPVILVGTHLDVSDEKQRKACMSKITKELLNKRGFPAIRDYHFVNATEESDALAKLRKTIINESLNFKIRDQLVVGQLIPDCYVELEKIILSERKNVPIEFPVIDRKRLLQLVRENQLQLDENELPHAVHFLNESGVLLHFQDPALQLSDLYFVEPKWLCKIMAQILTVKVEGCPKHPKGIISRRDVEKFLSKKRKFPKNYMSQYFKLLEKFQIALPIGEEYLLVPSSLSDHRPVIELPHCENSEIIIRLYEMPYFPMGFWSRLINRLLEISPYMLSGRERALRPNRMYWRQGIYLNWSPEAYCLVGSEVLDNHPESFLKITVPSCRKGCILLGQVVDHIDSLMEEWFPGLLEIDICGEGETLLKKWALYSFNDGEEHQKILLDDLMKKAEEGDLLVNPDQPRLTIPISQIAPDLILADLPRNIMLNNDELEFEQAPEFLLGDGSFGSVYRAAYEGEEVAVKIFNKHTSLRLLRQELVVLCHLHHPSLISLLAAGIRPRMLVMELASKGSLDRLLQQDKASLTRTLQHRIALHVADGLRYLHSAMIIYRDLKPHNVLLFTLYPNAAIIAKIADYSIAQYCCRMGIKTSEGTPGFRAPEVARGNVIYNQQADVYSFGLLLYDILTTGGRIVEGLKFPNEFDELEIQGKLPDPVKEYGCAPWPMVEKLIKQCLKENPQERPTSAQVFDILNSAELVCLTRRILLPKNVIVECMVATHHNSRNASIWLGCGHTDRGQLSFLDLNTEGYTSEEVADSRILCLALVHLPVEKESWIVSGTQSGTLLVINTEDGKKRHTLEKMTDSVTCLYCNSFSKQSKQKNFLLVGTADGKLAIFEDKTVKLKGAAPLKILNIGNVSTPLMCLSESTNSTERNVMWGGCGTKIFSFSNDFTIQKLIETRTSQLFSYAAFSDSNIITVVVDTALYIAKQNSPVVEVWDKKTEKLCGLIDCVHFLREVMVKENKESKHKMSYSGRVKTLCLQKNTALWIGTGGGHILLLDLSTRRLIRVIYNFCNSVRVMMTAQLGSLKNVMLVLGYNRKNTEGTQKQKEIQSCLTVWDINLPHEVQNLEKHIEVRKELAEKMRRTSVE

SMILES | Ki
CC(C)Nc1nccc2[nH]nc(-c3cc(C(=O)N(C)C)ncn3)c12 [Compound 62, 6-(4-(isopropylamino)-1H-pyrazolo[4,3-c]pyridin-3-yl)-N,N-dimethylpyrimidine-4-carboxamide] | 193 nM
c1cc(-c2n[nH]c3ccnc(NC4CCOCC4)c23)ncn1 [Compound 18, 3-(pyrimidin-4-yl)-N-(tetrahydro-2H-pyran-4-yl)-1H-pyrazolo[4,3-c]pyridin-4-amine] | 6 nM
CCNc1nccc2[nH]nc(-c3cc(C(F)(F)F)ccn3)c12 [Compound 21, N-ethyl-3-(4-(trifluoromethyl)pyridin-2-yl)-1H-pyrazolo[4,3-c]pyridin-4-amine] | 9.4 nM
CS(=O)(=O)c1ccnc(-c2n[nH]c3ccnc(NC4CCOCC4)c23)c1 [Compound 69, 3-(4-(methylsulfonyl)pyridin-2-yl)-N-(tetrahydro-2H-pyran-4-yl)-1H-pyrazolo[4,3-c]pyridin-4-amine] | 6.8 nM
FC1(F)CCC(Nc2nccc3[nH]nc(-c4ccncn4)c23)CC1 [Compound 38, N-(4,4-difluorocyclohexyl)-3-(pyrimidin-4-yl)-1H-pyrazolo[4,3-c]pyridin-4-amine] | 16.4 nM
CCc1cc(-c2n[nH]c3ccnc(NC4CCOCC4)c23)nn1C [Compound 1, 3-(5-ethyl-1-methyl-1H-pyrazol-3-yl)-N-(tetrahydro-2H-pyran-4-yl)-1H-pyrazolo[4,3-c]pyridin-4-amine] | 0.5 nM
CC(C)Nc1nccc2[nH]nc(-c3cc(-c4ccn(C)n4)ccn3)c12 [Compound 46, N-isopropyl-3-(4-(1-methyl-1H-pyrazol-3-yl)pyridin-2-yl)-1H-pyrazolo[4,3-c]pyridin-4-amine] | 1 nM
CC(C)Nc1nccc2[nH]nc(-c3cc(C(F)(F)F)ncn3)c12 [Compound 24, N-isopropyl-3-(6-(trifluoromethyl)pyrimidin-4-yl)-1H-pyrazolo[4,3-c]pyridin-4-amine] | 9.7 nM
Cc1nc(-c2n[nH]c3ccnc(NC4CCOCC4)c23)cc(C(F)(F)F)n1 [Compound 71, 3-(2-methyl-6-(trifluoromethyl)pyrimidin-4-yl)-N-(tetrahydro-2H-pyran-4-yl)-1H-pyrazolo[4,3-c]pyridin-4-amine] | 6.7 nM
FC(F)(F)CNc1nccc2[nH]nc(-c3ccccn3)c12 [Compound 43, 3-(pyridin-2-yl)-N-(2,2,2-trifluoroethyl)-1H-pyrazolo[4,3-c]pyridin-4-amine] | 8.8 nM
CCNc1nccc2[nH]nc(-c3ccccn3)c12 [Compound 16, N-ethyl-3-(pyridin-2-yl)-1H-pyrazolo[4,3-c]pyridin-4-amine] | 66.4 nM
CC(C)Nc1nccc2[nH]nc(-c3nnc(C4CC4)n3C)c12 [Compound 41, 3-(5-cyclopropyl-4-methyl-4H-1,2,4-triazol-3-yl)-N-isopropyl-1H-pyrazolo[4,3-c]pyridin-4-amine] | 151 nM
Cc1c(-c2ccnc(-c3n[nH]c4ccnc(NC(C)C)c34)c2)cnn1C [Compound 44, 3-(4-(1,5-dimethyl-1H-pyrazol-4-yl)pyridin-2-yl)-N-isopropyl-1H-pyrazolo[4,3-c]pyridin-4-amine] | 1.1 nM
CCNc1nccc2[nH]nc(-c3cn(C)cn3)c12 [Compound 12, N-ethyl-3-(1-methyl-1H-imidazol-4-yl)-1H-pyrazolo[4,3-c]pyridin-4-amine] | 33.7 nM
Cc1cc(S(C)(=O)=O)cc(-c2n[nH]c3ccnc(NC(C)C)c23)n1 [Compound 76, N-isopropyl-3-(6-methyl-4-(methylsulfonyl)pyridin-2-yl)-1H-pyrazolo[4,3-c]pyridin-4-amine] | 4.5 nM
CCOc1cc(-c2n[nH]c3cc(C)nc(NC4CCOCC4)c23)ncn1 [Compound 58, 3-(6-ethoxypyrimidin-4-yl)-6-methyl-N-(tetrahydro-2H-pyran-4-yl)-1H-pyrazolo[4,3-c]pyridin-4-amine] | 39.1 nM
Cc1cc(C(F)(F)F)cc(-c2n[nH]c3ccnc(NC4CCOCC4)c23)n1 [Compound 70, 3-(6-methyl-4-(trifluoromethyl)pyridin-2-yl)-N-(tetrahydro-2H-pyran-4-yl)-1H-pyrazolo[4,3-c]pyridin-4-amine] | 0.7 nM
CC(C)Nc1nccc2[nH]nc(-n3cc(C(F)(F)F)cn3)c12 [Compound 32, N-isopropyl-3-(4-(trifluoromethyl)-1H-pyrazol-1-yl)-1H-pyrazolo[4,3-c]pyridin-4-amine] | 9.1 nM
CCc1cc(-c2n[nH]c3ccnc(NC(C)C)c23)nn1C [Compound 11, 3-(5-ethyl-1-methyl-1H-pyrazol-3-yl)-N-isopropyl-1H-pyrazolo[4,3-c]pyridin-4-amine] | 3.5 nM
CCOc1ccnc(-c2n[nH]c3ccnc(NC4CCOCC4)c23)c1 [Compound 50, 3-(4-ethoxypyridin-2-yl)-N-(tetrahydro-2H-pyran-4-yl)-1H-pyrazolo[4,3-c]pyridin-4-amine] | 2.2 nM
CCNc1nccc2[nH]nc(-c3cn(C)nn3)c12 [Compound 10, N-ethyl-3-(1-methyl-1H-1,2,3-triazol-4-yl)-1H-pyrazolo[4,3-c]pyridin-4-amine] | 14.5 nM
FC(F)(F)c1cc(-c2n[nH]c3ccnc(NC4CCOCC4)c23)ncn1 [Compound 22, N-(tetrahydro-2H-pyran-4-yl)-3-(6-(trifluoromethyl)pyrimidin-4-yl)-1H-pyrazolo[4,3-c]pyridin-4-amine] | 2.9 nM
CC(C)n1cc(-c2n[nH]c3ccnc(NC4CCOCC4)c23)nn1 [Compound 5, 3-(1-isopropyl-1H-1,2,3-triazol-4-yl)-N-(tetrahydro-2H-pyran-4-yl)-1H-pyrazolo[4,3-c]pyridin-4-amine] | 1.7 nM
CCNc1nccc2[nH]nc(-c3cc(C(F)(F)F)ncn3)c12 [Compound 27, N-ethyl-3-(6-(trifluoromethyl)pyrimidin-4-yl)-1H-pyrazolo[4,3-c]pyridin-4-amine] | 31.8 nM
O=C(c1ccnc(-c2n[nH]c3ccnc(NC4CCOCC4)c23)c1)N1CCC1 [Compound 63, azetidin-1-yl(2-(4-((tetrahydro-2H-pyran-4-yl)amino)-1H-pyrazolo[4,3-c]pyridin-3-yl)pyridin-4-yl)methanone] | 14.7 nM

Next, values leading:

Ki | SMILES
1.1 nM | CC(C)Nc1nccc2[nH]nc(-c3cc(N4CCOCC4)ncn3)c12 [Compound 4, N-isopropyl-3-(6-morpholinopyrimidin-4-yl)-1H-pyrazolo[4,3-c]pyridin-4-amine]
4.6 nM | CC(C)Nc1nccc2[nH]nc(-c3cc(C4CCOC4)ccn3)c12 (stereo not drawn) [Compound 49, N-isopropyl-3-(4-(tetrahydrofuran-3-yl)pyridin-2-yl)-1H-pyrazolo[4,3-c]pyridin-4-amine]
80.3 nM | CC(C)Nc1nccc2[nH]nc(-c3cc(C(=O)N4CCOCC4)ccn3)c12 [Compound 56, (2-(4-(isopropylamino)-1H-pyrazolo[4,3-c]pyridin-3-yl)pyridin-4-yl)(morpholino)methanone]
25.8 nM | CC(C)Nc1nccc2[nH]nc(-c3cc(S(=O)(=O)C(C)C)ccn3)c12 [Compound 74, N-isopropyl-3-(4-(isopropylsulfonyl)pyridin-2-yl)-1H-pyrazolo[4,3-c]pyridin-4-amine]
0.8 nM | CC(C)Nc1nccc2[nH]nc(-c3cc(-c4cnn(C)c4)ccn3)c12 [Compound 35, N-isopropyl-3-(4-(1-methyl-1H-pyrazol-4-yl)pyridin-2-yl)-1H-pyrazolo[4,3-c]pyridin-4-amine]
3.9 nM | CC(C)Nc1nccc2[nH]nc(-c3cc(N4C[C@@H](F)[C@H](F)C4)ccn3)c12 [Compound 59, 3-(4-((3R,4R)-3,4-difluoropyrrolidin-1-yl)pyridin-2-yl)-N-isopropyl-1H-pyrazolo[4,3-c]pyridin-4-amine]
2.5 nM | CC(C)Nc1nccc2[nH]nc(-c3cc(Cl)ccn3)c12 [Compound 30, 3-(4-chloropyridin-2-yl)-N-isopropyl-1H-pyrazolo[4,3-c]pyridin-4-amine]
28.7 nM | CC(C)Nc1nccc2[nH]nc(-c3cc(C4CCCO4)ncn3)c12 (stereo not drawn) [Compound 54, N-isopropyl-3-(6-(tetrahydrofuran-2-yl)pyrimidin-4-yl)-1H-pyrazolo[4,3-c]pyridin-4-amine]
0.7 nM | Clc1ccnc(-c2n[nH]c3ccnc(NC4CCOCC4)c23)c1 [Compound 29, 3-(4-chloropyridin-2-yl)-N-(tetrahydro-2H-pyran-4-yl)-1H-pyrazolo[4,3-c]pyridin-4-amine]
1.3 nM | Cc1nn(C)cc1-c1ccnc(-c2n[nH]c3ccnc(NC(C)C)c23)c1 [Compound 45, 3-(4-(1,3-dimethyl-1H-pyrazol-4-yl)pyridin-2-yl)-N-isopropyl-1H-pyrazolo[4,3-c]pyridin-4-amine]
12 nM | CC(C)Nc1nccc2[nH]nc(-c3cc(C4CCOC4)ncn3)c12 (stereo not drawn) [Compound 48, N-isopropyl-3-(6-(tetrahydrofuran-3-yl)pyrimidin-4-yl)-1H-pyrazolo[4,3-c]pyridin-4-amine]

— US20140288043A1, “PYRAZOLOPYRIDINE COMPOUNDS” (Genentech, Inc., priority 2013, published 2014)
